The test system of the experiment is SMN protein. Kind of experiment: cellular SMN ELISA (SMN protein elevation). The format is cell-based. The note with it: ELISA condition 2: compound concentration 100 pM-10 uM, myoblast cell line from SMNdelta7 mouse model, 24 hours treatment; for SMN activity Fold: fold activation over DMSO control. The essentials:
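SMNdelta7 mouse-derived myoblasts were treated with compound for 24 h, then lysed. SMN protein was quantified by sandwich ELISA (HRP/TMB, 450 nm) and reported as fold over DMSO and EC50, over 20 nM–10 μM or 100 pM–10 μM depending on condition.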
For orientation: In an ELISA, binding on a coated surface is turned into a signal by an enzyme label.

By EC50 is commonly meant the concentration that produces a half-maximal response. Read a high EC50 as lower potency in that assay. Take `CN(c1ccc(-c2cc3c(cc2O)C(=O)CC3)nn1)C1CC(C)(C)NC(C)(C)C1` [Example 35-1, 6-hydroxy-5-(6-(methyl(2,2,6,6-tetramethylpiperidin-4-yl)amino)pyridazin-3-yl)-2,3-dihydro-1H-inden-1-one]: the EC50 was 0.027 µM and the “SMN activity Fold” value was 2.79 Fold.
The matching figures for `CN(c1ccc(-c2cc3c(cc2O)-c2[nH]ncc2C3)nn1)C1CC(C)(C)NC(C)(C)C1` [Example 35-2, 6-(6-(methyl(2,2,6,6-tetramethylpiperidin-4-yl)amino)pyridazin-3-yl)-1,4-dihydroindeno[1,2-c]pyrazol-7-ol]: 0.01 µM and 2.84 Fold.
The matching figures for `CN(c1ccc(-c2cc3c(cc2O)/C(=N/O)CC3)nn1)C1CC(C)(C)NC(C)(C)C1` [Example 35-3, 6-hydroxy-5-(6-(methyl(2,2,6,6-tetramethylpiperidin-4-yl)amino)pyridazin-3-yl)-2,3-dihydro-1H-inden-1-one oxime]: 0.011 µM and 2.62 Fold.
The like results for `CN(c1ccc(-c2cc3c(cc2O)C(O)CC3)nn1)C1CC(C)(C)NC(C)(C)C1` (stereo not drawn) [Example 35-4, 5-(6-(methyl(2,2,6,6-tetramethylpiperidin-4-yl)amino)pyridazin-3-yl)-2,3-dihydro-1H-indene-1,6-diol] were, in that order, 0.131 µM and 2.11 Fold.
On to `CN(c1ccc(-c2cc3c(cc2O)-c2nc(N)sc2C3)nn1)C1CC(C)(C)NC(C)(C)C1` [Example 35-5, 2-amino-6-(6-(methyl(2,2,6,6-tetramethylpiperidin-4-yl)amino)pyridazin-3-yl)-8H-indeno[1,2-d]thiazol-5-ol], for which the EC50 came out at 0.006 µM and the “SMN activity Fold” value is given as 2.44 Fold.
Take `CN(c1ccc(-c2cc3c(cc2O)CCn2cncc2-3)nn1)C1CC(C)(C)NC(C)(C)C1` [Example 35-6, 9-(6-(methyl(2,2,6,6-tetramethylpiperidin-4-yl)amino)pyridazin-3-yl)-5,6-dihydroimidazo[5,1-a]isoquinolin-8-ol]: it took 0.051 µM to reach a half-maximal effect (EC50) and the “SMN activity Fold” value is listed as 2.21 Fold.
The like results for `CN(c1ccc(-c2cc(C(=O)NCc3cnn(C)c3)ccc2O)nn1)C1CC(C)(C)NC(C)(C)C1` [Example 36-1, 4-hydroxy-3-(6-(methyl(2,2,6,6-tetramethylpiperidin-4-yl)amino)pyridazin-3-yl)-N-((1-methyl-1H-pyrazol-4-yl)methyl)benzamide] were, in that order, 0.652 µM and 2.04 Fold.
The like results for `CN(c1ccc(-c2cc(-n3cc(CO)cn3)ccc2O)nn1)C1CC(C)(C)NC(C)(C)C1` [Example 37-1, 4-(4-(hydroxymethyl)-1H-pyrazol-1-yl)-2-(6-(methyl(2,2,6,6-tetramethylpiperidin-4-yl)amino)pyridazin-3-yl)phenol] were, in that order, 0.118 µM and 2.59 Fold.
The like results for `CN(c1ccc(-c2ccc3cnc(OCc4ccccc4)cc3c2)nn1)C1CC(C)(C)NC(C)(C)C1` [Example 39-1, 6-(3-(benzyloxy)isoquinolin-6-yl)-N-methyl-N-(2,2,6,6-tetramethylpiperidin-4-yl)pyridazin-3-amine] were, in that order, 1.03 µM and 2.65 Fold.
`CN(c1ccc(-c2ccc3ccnc(OCc4ccccc4)c3c2)nn1)C1CC(C)(C)NC(C)(C)C1` [Example 39-2, 6-(1-(benzyloxy)isoquinolin-7-yl)-N-methyl-N-(2,2,6,6-tetramethylpiperidin-4-yl)pyridazin-3-amine]: a half-maximal effect (EC50) was put at 0.408 µM and the “SMN activity Fold” value is listed as 3.04 Fold.
The like results for `COc1cc(-c2cc(O)c(-c3ccc(N(C)C4CC(C)(C)NC(C)(C)C4)nn3)c(F)c2)ccn1` [Example 40-1, 3-fluoro-5-(2-methoxypyridin-4-yl)-2-(6-(methyl(2,2,6,6-tetramethylpiperidin-4-yl)amino)pyridazin-3-yl)phenol] were, in that order, 0.079 µM and 2.58 Fold.
The matching figures for `CN(c1ccc(-c2c(O)cc(-c3cc[nH]c(=O)c3)cc2F)nn1)C1CC(C)(C)NC(C)(C)C1` [Example 40-2, 4-(3-fluoro-5-hydroxy-4-(6-(methyl(2,2,6,6-tetramethylpiperidin-4-yl)amino)pyridazin-3-yl)phenyl)pyridin-2(1H)-one]: 0.025 µM and 2.78 Fold.
On to `CN(c1ccc(-c2c(O)cc(-c3ccn(C)c(=O)c3)cc2F)nn1)C1CC(C)(C)NC(C)(C)C1` [Example 40-3, 4-(3-fluoro-5-hydroxy-4-(6-(methyl(2,2,6,6-tetramethylpiperidin-4-yl)amino)pyridazin-3-yl)phenyl)-1-methylpyridin-2(1H)-one], for which the EC50 was 0.011 µM and the “SMN activity Fold” value worked out at 3.03 Fold.
The matching figures for `CN(c1ccc(-c2c(O)cc(-c3ccc(=O)n(C)c3)cc2F)nn1)C1CC(C)(C)NC(C)(C)C1` [Example 40-4, 5-(3-fluoro-5-hydroxy-4-(6-(methyl(2,2,6,6-tetramethylpiperidin-4-yl)amino)pyridazin-3-yl)phenyl)-1-methylpyridin-2(1H)-one]: 0.015 µM and 2.14 Fold.
The like results for `CC1(C)CC(Oc2ccc(-c3c(O)cc(-c4cn[nH]c4)cc3F)nn2)CC(C)(C)N1` [Example 40-5, 3-fluoro-5-(1H-pyrazol-4-yl)-2-(6-((2,2,6,6-tetramethylpiperidin-4-yl)oxy)pyridazin-3-yl)phenol] were, in that order, 0.017 µM and 3.59 Fold.
On to `CN(c1ccc(-c2c(O)cc(Cl)cc2F)nn1)C1CC(C)(C)NC(C)(C)C1` [Example 40-6, 5-chloro-3-fluoro-2-(6-(methyl(2,2,6,6-tetramethylpiperidin-4-yl)amino)pyridazin-3-yl)phenol], for which the EC50 was found to be 0.208 µM and the “SMN activity Fold” value was 2.16 Fold.
For the molecule `CN(c1ccc(-c2c(O)cc(-c3cn[nH]c3)cc2F)nn1)C1CC(C)(C)NC(C)(C)C1` [Example 40-7, 3-fluoro-2-(6-(methyl(2,2,6,6-tetramethylpiperidin-4-yl)amino)pyridazin-3-yl)-5-(1H-pyrazol-4-yl)phenol], the EC50 was found to be 0.004 µM and the “SMN activity Fold” value was determined as 2.80 Fold.
Regarding `CN(c1ccc(-c2c(O)cc(-c3cnn(C)c3)cc2F)nn1)C1CC(C)(C)NC(C)(C)C1` [Example 40-8, 3-fluoro-2-(6-(methyl(2,2,6,6-tetramethylpiperidin-4-yl)amino)pyridazin-3-yl)-5-(1-methyl-1H-pyrazol-4-yl)phenol], the EC50 turned out to be 0.016 µM and the “SMN activity Fold” value worked out at 3.18 Fold.
The like results for `COc1cncc(-c2ccc(-c3ccc(N(C)C4CC(C)(C)NC(C)(C)C4)nn3)c(O)c2)c1` [Example 41-1, 5-(5-methoxypyridin-3-yl)-2-(6-(methyl(2,2,6,6-tetramethylpiperidin-4-yl)amino)pyridazin-3-yl)phenol] were, in that order, 0.125 µM and 2.78 Fold.
The like results for `CN(c1ccc(-c2ccc(-c3ccc(O)nc3)cc2O)nn1)C1CC(C)(C)NC(C)(C)C1` [Example 41-2] were, in that order, 0.05 µM and 2.68 Fold.
The matching figures for `CN(c1ccc(-c2ccc(-c3ccnc(O)c3)cc2O)nn1)C1CC(C)(C)NC(C)(C)C1` [Example 41-3]: 0.066 µM and 3.10 Fold.

These data come from US10195196B2, “1,4-disubstituted pyridazine analogs there of and methods for treating SMN-deficiency-related conditions” (NOVARTIS AG, priority 2012, dated 2019).
